Test results: patent US20090176817A1, “Method of Treatment of Diarrhea-Predominant Irritable Bowel Syndrome in a Subject” (priority 2005, published 2009)

System: diarrhea-predominant IBS subjects
Test: Study S241.3.011: weekly diary questions on adequate relief
Format: in vivo, human
Details: for Number of months a subject was a responder: Zero months (IBS symptoms) / Overall responder rate, adequate relief of IBS symptoms / Overall responder rate, adequate relief of abdominal pain/discomfort / Overall responder rate, adequate relief of abnormal bowel habits / Number of months a subject was a responder: One month (Abdominal pain/discomfort) / Number of months a subject was a responder: One month (Abnormal bowel habits) / Number of months a subject was a responder: One month (IBS symptoms) / Number of months a subject was a responder: Three months (Abdominal pain/discomfort) / Number of months a subject was a responder: Three months (Abnormal bowel habits) / Number of months a subject was a responder: Three months (IBS symptoms) / Number of months a subject was a responder: Two months (Abdominal pain/discomfort) / Number of months a subject was a responder: Two months (Abnormal bowel habits) / Number of months a subject was a responder: Two months (IBS symptoms) / Number of months a subject was a responder: Zero months (Abdominal pain/discomfort) / Number of months a subject was a responder: Zero months (Abnormal bowel habits): three-month treatment period; for Number of months a subject was a responder: Zero months (IBS symptoms) / Number of months a subject was a responder: One month (Abdominal pain/discomfort) / Number of months a subject was a responder: One month (Abnormal bowel habits) / Number of months a subject was a responder: One month (IBS symptoms) / Number of months a subject was a responder: Three months (Abdominal pain/discomfort) / Number of months a subject was a responder: Three months (Abnormal bowel habits) / Number of months a subject was a responder: Three months (IBS symptoms) / Number of months a subject was a responder: Two months (Abdominal pain/discomfort) / Number of months a subject was a responder: Two months (Abnormal bowel habits) / Number of months a subject was a responder: Two months (IBS symptoms) / Number of months a subject was a responder: Zero months (Abdominal pain/discomfort) / Number of months a subject was a responder: Zero months (Abnormal bowel habits): monthly LOCF; for Overall responder rate, adequate relief of IBS symptoms / Overall responder rate, adequate relief of abdominal pain/discomfort / Overall responder rate, adequate relief of abnormal bowel habits: observed case
Protocol: Study S241.3.011 was a Phase III, double-blind, placebo-controlled, randomized, multinational study to investigate the safety and efficacy of 2 mg TID of cilansetron for a period of 12 weeks followed by a rerandomized, placebo-controlled four-week treatment period, in diarrhea-predominant IBS subjects. The study was conducted in six countries including the US. A total of 2115 subjects consented to participate, and 770 subjects were randomized. A total of 746 subjects were analyzed for efficacy and 755 subjects were analyzed for safety. Diagnosis and main criteria for inclusion were IBS subjects satisfying the Rome I criteria (1992); the diarrhea predominant sub-population of the Rome II criteria; and a minimum abdominal pain/discomfort, stool frequency and consistency determined during the run-in period. Subjects were treated with cilansetron 2 mg tablets given orally TID or matching placebo tablets given orally TID for 12 weeks followed by a rerandomized, placebo-controlled four-week treatment period.
The primary efficacy parameter was the number of months that a subject was a responder for IBS symptoms (abdominal pain, abdominal discomfort, abnormal bowel habits) over the 12-week treatment period. A responder for a month (monthly responder) was defined as a subject who answered the weekly question with “yes” at least twice for that month. The two main secondary efficacy parameters were the monthly responder rates based on the “adequate relief” questions regarding abdominal pain/discomfort and abnormal bowel habits during the 12-week treatment period. The overall response rate and responder rate for the weekly diary questions on adequate relief at each month and all months, the adequate relief rate, the number of subjects with adequate relief by week, daily diary questions, IBS-QOL scores, and the interruption of activities were also assessed. Safety was evaluated by physical examination, ECG, vital signs, laboratory evaluations, concomitant medications, and AEs.
Subjects who were initially randomized to the cilansetron 2 mg TID group and rerandomized to placebo, will be referred to as the C/P treatment group; subjects initially randomized to the placebo group and rerandomized to placebo will be referred to as the P/P treatment group; the P/C and C/C treatment group nomenclature follow the same principle. Of the 591 subjects who completed the three-month treatment period, 576 subjects were rerandomized and thus divided into the following treatment groups: 150 subjects in the C/C treatment group, 140 subjects in the C/P treatment group, 136 subjects in the P/C treatment group, and 150 subjects in the P/P treatment group. Of the 576 subjects rerandomized, a higher percentage of subjects in the C/C treatment group (99%) completed the study compared with the C/P (95%), P/C (93%), and the P/P (95%) treatment groups.
Studies S24 1.3.OO6, S24 1.3.0 1 1, and S24 1.3.009 used the following efficacy measurements: • The subjects answered the following three questions with “yes” or “no” using a phone diary at the end of each week: • a) During the last week, did you experience adequate relief of your IBS symptoms, such as abdominal pain, abdominal discomfort, abnormal bowel habits? • b) During the last week, did you experience adequate relief of your abdominal pain and/or discomfort? • c) During the last week, did you experience adequate relief of your abnormal bowel habits? • The subjects rated the following symptoms using the phone diary at the end of each day: • abdominal pain/discomfort (five-point scale); • stool consistency (seven-point Bristol Stool Scale); • stool frequency (number of bowel movements each day); • urgency (five-point scale); • straining (yes or no); • feeling of incomplete defecation (yes or no); • bloating or feeling of abdominal distension (five-point scale). • In Studies S241 A006 and S241.3.009, subjects completed the IBS-QOL Survey at Baseline (Day 1) and at the end of treatment. […]

[1] = Baseline BMI: <30 kg/m^2, ITT, 2 mg TID
[2] = Baseline BMI: ≧30 kg/m^2, ITT, 2 mg TID
[3] = Baseline severity of IBS: non-severe, ITT, 2 mg TID
[4] = Baseline severity of IBS: severe, ITT, 2 mg TID
[5] = Duration of IBS: >24 months to ≦48 months, 2 mg TID, monthly LOCF imputation, ITT

## Cc1nccn1C[C@H]1CCc2c(c3cccc4c3n2CCC4)C1=O [Cilansetron, (R)-(−)-4,5,6,8,9,10-hexahydro-10-[(2-methyl-1H-imidazol-1-yl)methyl]-11H-pyrido-[3,2,1-jk]-carbazol-11-one]
[1]
  Number of months a subject was a responder: Zero months (IBS symptoms): 73 (27) n (%)
  Overall responder rate, adequate relief of IBS symptoms: 148 (56) n (%)
  Overall responder rate, adequate relief of abdominal pain/discomfort: 158 (59) n (%)
  Overall responder rate, adequate relief of abnormal bowel habits: 150 (56) n (%)
[2]
  Number of months a subject was a responder: One month (Abdominal pain/discomfort): 15 (14) n (%)
  Number of months a subject was a responder: One month (Abnormal bowel habits): 17 (15) n (%)
  Number of months a subject was a responder: One month (IBS symptoms): 16 (14) n (%)
  Number of months a subject was a responder: Three months (Abdominal pain/discomfort): 46 (41) n (%)
  Number of months a subject was a responder: Three months (Abnormal bowel habits): 45 (41) n (%)
  Number of months a subject was a responder: Three months (IBS symptoms): 41 (37) n (%)
  Number of months a subject was a responder: Two months (Abdominal pain/discomfort): 22 (20) n (%)
  Number of months a subject was a responder: Two months (Abnormal bowel habits): 15 (14) n (%)
  Number of months a subject was a responder: Two months (IBS symptoms): 22 (20) n (%)
  Number of months a subject was a responder: Zero months (Abdominal pain/discomfort): 28 (25) n (%)
  Number of months a subject was a responder: Zero months (Abnormal bowel habits): 34 (31) n (%)
  Number of months a subject was a responder: Zero months (IBS symptoms): 32 (29) n (%)
  Overall responder rate, adequate relief of IBS symptoms: 58 (52) n (%)
  Overall responder rate, adequate relief of abdominal pain/discomfort: 63 (57) n (%)
  Overall responder rate, adequate relief of abnormal bowel habits: 53 (48) n (%)
[3]
  Number of months a subject was a responder: One month (Abdominal pain/discomfort): 25 (11) n (%)
  Number of months a subject was a responder: One month (Abnormal bowel habits): 26 (12) n (%)
  Number of months a subject was a responder: One month (IBS symptoms): 29 (13) n (%)
  Number of months a subject was a responder: Three months (Abdominal pain/discomfort): 97 (44) n (%)
  Number of months a subject was a responder: Three months (Abnormal bowel habits): 88 (40) n (%)
  Number of months a subject was a responder: Three months (IBS symptoms): 92 (41) n (%)
  Number of months a subject was a responder: Two months (Abdominal pain/discomfort): 40 (18) n (%)
  Number of months a subject was a responder: Two months (Abnormal bowel habits): 40 (18) n (%)
  Number of months a subject was a responder: Two months (IBS symptoms): 39 (18) n (%)
  Number of months a subject was a responder: Zero months (Abdominal pain/discomfort): 60 (27) n (%)
  Number of months a subject was a responder: Zero months (Abnormal bowel habits): 68 (31) n (%)
  Number of months a subject was a responder: Zero months (IBS symptoms): 62 (28) n (%)
  Overall responder rate, adequate relief of IBS symptoms: 124 (56) n (%)
  Overall responder rate, adequate relief of abdominal pain/discomfort: 131 (59) n (%)
  Overall responder rate, adequate relief of abnormal bowel habits: 121 (55) n (%)
[4]
  Number of months a subject was a responder: One month (Abdominal pain/discomfort): 20 (13) n (%)
  Number of months a subject was a responder: One month (Abnormal bowel habits): 24 (15) n (%)
  Number of months a subject was a responder: One month (IBS symptoms): 25 (16) n (%)
  Number of months a subject was a responder: Three months (Abdominal pain/discomfort): 62 (40) n (%)
  Number of months a subject was a responder: Three months (Abnormal bowel habits): 61 (39) n (%)
  Number of months a subject was a responder: Three months (IBS symptoms): 56 (36) n (%)
  Number of months a subject was a responder: Two months (Abdominal pain/discomfort): 32 (21) n (%)
  Number of months a subject was a responder: Two months (Abnormal bowel habits): 26 (17) n (%)
  Number of months a subject was a responder: Two months (IBS symptoms): 31 (20) n (%)
  Number of months a subject was a responder: Zero months (Abdominal pain/discomfort): 41 (26) n (%)
  Number of months a subject was a responder: Zero months (Abnormal bowel habits): 44 (28) n (%)
  Number of months a subject was a responder: Zero months (IBS symptoms): 43 (28) n (%)
  Overall responder rate, adequate relief of IBS symptoms: 82 (53) n (%)
  Overall responder rate, adequate relief of abdominal pain/discomfort: 90 (58) n (%)
  Overall responder rate, adequate relief of abnormal bowel habits: 82 (53) n (%)
Caucasians
  Overall responder rate, IBS symptoms: 53%
  Overall responder rate, abdominal pain/discomfort: 57%
  Overall responder rate, abnormal bowel habits: 51%
[5]
  Number of months a subject was a responder during the three-month treatment period: Abdominal pain/discomfort, One month: 10 (14) n (%)
  Number of months a subject was a responder during the three-month treatment period: Abdominal pain/discomfort, Three months: 32 (44) n (%)
  Number of months a subject was a responder during the three-month treatment period: Abdominal pain/discomfort, Two months: 15 (21) n (%)
  Number of months a subject was a responder during the three-month treatment period: Abdominal pain/discomfort, Zero months: 15 (21) n (%)
  Number of months a subject was a responder during the three-month treatment period: Abnormal bowel habits, One month: 10 (14) n (%)
  Number of months a subject was a responder during the three-month treatment period: Abnormal bowel habits, Three months: 32 (44) n (%)
